Legend:
HEK293 cells = experiment: MTT cell viability assay, HEK293; type: cell-based, human
HCT-116 cells = experiment: MTT cell viability assay, HCT-116; type: cell-based, human; details: 72 h; for cytotoxicity on tested cell lines: HCT-116, MCF-7, A-549, concentrations up to 50 µM; for IC50: MTT, IC50 ± SD
Method: (§1) To evaluate the effects of the newly synthesized tetrahydroquinolin-2(1H)-one derivatives on cell viability, we treated human colon cancer cells HCT-116, human breast cancer cells MCF-7, and human non-small cell lung cancer cells A-549 with different concentrations of the compounds for 72 h. After incubation, the MTT (3-(4,5-dimethylthiazol-2-yl)-2,5-diphenyltetrazolium bromide) assay was performed and the cytotoxic potency of compounds (expressed in IC50) on the cells was determined in comparison to control cells treated with 1% of dimethyl sulfoxide (DMSO) (Table 1). […] We also compared the activity of 20d and 19b to the reference control drug Cisplatin, which is widely used in chemotherapy.
(§2) A-549 (CCL-185) and MCF-7 ([…]) cells were cultured in RPMI-1640 medium, while HCT-116 (CVCL-427), (hMLH1)-deficient (MMR^–) and hMLH1-proficient (MMR^+) RKO cells were cultured in McCoy’s 5A medium. The culture media were supplemented with 10% fetal bovine serum, 2 mM L-glutamine, and antibiotics (penicillin 62.6 µg/ml and streptomycin 40 µg/ml). Cultivation of cell lines was carried out at 37 °C under a humidified atmosphere containing 5% CO2, and the cultures were routinely screened for Mycoplasma contamination. A-549, MCF-7, and HCT-116 cells were obtained from American Type Culture Collection (ATCC), while RKO colon carcinoma cells were a kind gift of Dr Timothy Kinsella (Brown University, USA).
(§3) The viability of cells was determined in response to the newly synthesized compounds using the MTT (Sigma-Aldrich) assay. Briefly, cells were seeded into 96-well plates and allowed to attach overnight. Then, cells were exposed to various concentrations of compounds for 24, 48 or 72 h. Negative controls were treated with the same amount of DMSO solvent (1%). After treatment, the MTT solution (0.4 mg/ml) was added to each well and allowed to react with cells for 2–3 h at 37 °C. Next, the medium was removed, the formazan product formed was dissolved in 100 μl of DMSO, and the absorbance was determined at 540 nm using an ASYS UVM340 microplate reader (Biochrom Ltd.). The IC50 value, which represents the concentration of the compound required to inhibit cell growth by 50% compared to vehicle, was calculated using GraphPad Prism 8 software based on the curves plotting survival against dose averaged from at least three independent experiments.

A-549 cells = experiment: MTT cell viability assay, A-549; type: cell-based, human; details: MTT, 72 h, IC50 ± SD
Method: as §1, §2, §3

MCF-7 cells = experiment: MTT cell viability assay, MCF-7; type: cell-based, human; details: IC50 ± SD
Method: as §1, §2, §3

[1] = Homo sapiens, HEK293, IC50 ± SD

| SMILES | IC50 (HEK293 cells; [1]) [µM] | cytotoxicity on tested cell lines (HCT-116 cells) | IC50 (HCT-116 cells; Homo sapiens, HCT-116, 72 h) [µM] | IC50 (A-549 cells; Homo sapiens, A549) [µM] | IC50 (MCF-7 cells; Homo sapiens, MCF7, 72 h) [µM] | melting point [°C] | IC50 (HCT-116 cells) [µM] | IC50 (HEK293 cells; IC50 ± SD) [µM] | IC50 (A-549 cells) [µM] | IC50 (MCF-7 cells; 72 h) [µM] |
| --- | --- | --- | --- | --- | --- | --- | --- | --- | --- | --- |
| O=C(Nc1ccc([N+](=O)[O-])cc1)OC1CCCc2c(-c3ccccc3)cc(Cl)nc21 (stereo not shown) [Compound 18b, (2-chloro-4-phenyl-5,6,7,8-tetrahydroquinolin-8-yl) N-(4-nitrophenyl)carbamate] | > 50 | no cytotoxicity | > 50 | > 50 | > 50 |  |  |  |  |  |
| O=C(Nc1ccc(Cl)cc1)OC1CCCc2c(-c3ccccc3)cc(=O)[nH]c21 (stereo not shown) [Compound 20e, (2-oxo-4-phenyl-5,6,7,8-tetrahydroquinolin-8-yl) N-(4-chlorophenyl)carbamate] | > 50 | no cytotoxicity | > 50 | > 50 | > 50 |  |  |  |  |  |
| O=C(Nc1ccc(F)cc1)OC1CCCc2c(-c3ccccc3)cc(Cl)nc21 (stereo not shown) [Compound 18c, (2-chloro-4-phenyl-5,6,7,8-tetrahydroquinolin-8-yl) N-(4-fluorophenyl)carbamate] | > 50 |  | 18.9 ± 1.26 | 23.8 ± 4.02 | > 50 | 113 to 115 |  |  |  |  |
| COc1cc(-c2ccccc2)c2c(n1)C(OC(=O)Nc1ccc(F)cc1)CCC2 (stereo not shown) [Compound 19c, (2-methoxy-4-phenyl-5,6,7,8-tetrahydroquinolin-8-yl) N-(4-fluorophenyl)carbamate] | > 50 |  | ~13 | 28.4 ± 0.56 | > 50 | 125 to 127 | 13 ± 2.68 |  |  |  |
| COc1cc(-c2ccccc2)c2c(n1)C(O)CCC2 (stereo not shown) [Compound 17, 2-methoxy-4-phenyl-5,6,7,8-tetrahydroquinolin-8-ol] | > 50 | no cytotoxicity | > 50 | > 50 | > 50 | 61 to 63 |  |  |  |  |
| COc1cc(-c2ccccc2)c2c(n1)C(OC(=O)Nc1cccc(F)c1)CCC2 (stereo not shown) [Compound 19d, (2-methoxy-4-phenyl-5,6,7,8-tetrahydroquinolin-8-yl) N-(3-fluorophenyl)carbamate] | > 50 |  | 31.6 ± 0.58 | 41.1 ± 0.93 | > 50 |  |  |  |  |  |
| O=c1cc(-c2ccccc2)c2c([nH]1)C(O)CCC2 (stereo not shown) [Compound 24, 8-hydroxy-4-phenyl-5,6,7,8-tetrahydro-1H-quinolin-2-one] | > 50 | no cytotoxicity | > 50 | > 50 | > 50 | 104 to 106 |  |  |  |  |
| COc1cc(-c2ccccc2)c2c(n1)C(OC(=O)Nc1ccc(Cl)cc1)CCC2 (stereo not shown) [Compound 19e, (2-methoxy-4-phenyl-5,6,7,8-tetrahydroquinolin-8-yl) N-(4-chlorophenyl)carbamate] | > 50 |  | ~13 | > 50 | > 50 | 144 to 146 | 13.9 ± 1.3 |  |  |  |
| O=C1CCCc2c(-c3ccccc3)cc(Cl)nc21 [Compound 21, 2-chloro-4-phenyl-6,7-dihydro-5H-quinolin-8-one] | > 50 | no cytotoxicity | > 50 | > 50 | > 50 | 135 to 137 |  |  |  |  |
| N.N.[Cl][Pt][Cl] [Cisplatin, reference compound] |  |  |  |  |  |  | 24.9 ± 1.14 | 28.4 ± 1.97 | 29.01 ± 0.12 | 33.8 ± 1.56 |
| O=C(Nc1ccc([N+](=O)[O-])cc1)OC1CCCc2c(-c3ccccc3)cc(=O)[nH]c21 (stereo not shown) [Compound 20b, (2-oxo-4-phenyl-5,6,7,8-tetrahydroquinolin-8-yl) N-(4-nitrophenyl)carbamate] | > 50 |  | > 50 | > 50 | > 50 | 225 to 227 |  |  |  |  |
| O=C(Nc1ccccc1)OC1CCCc2c(-c3ccccc3)cc(Cl)nc21 (stereo not shown) [Compound 18a, (2-chloro-4-phenyl-5,6,7,8-tetrahydroquinolin-8-yl) N-phenylcarbamate] | > 50 |  | 39.8 ± 2.62 | 27.2 ± 1.53 | > 50 | 148 to 150 |  |  |  |  |
| OC1CCCc2c(-c3ccccc3)cc(Cl)nc21 (stereo not shown) [Compound 16, 2-chloro-4-phenyl-5,6,7,8-tetrahydroquinolin-8-ol] | > 50 | no cytotoxicity | > 50 | > 50 | > 50 | 88 to 90 |  |  |  |  |
| O=C(Nc1cccc(F)c1)OC1CCCc2c(-c3ccccc3)cc(Cl)nc21 (stereo not shown) [Compound 18d, (2-chloro-4-phenyl-5,6,7,8-tetrahydroquinolin-8-yl) N-(3-fluorophenyl)carbamate] | > 50 | no cytotoxicity | > 50 | > 50 | > 50 |  |  |  |  |  |
| O=C(Nc1ccc(F)cc1)OC1CCCc2c(-c3ccccc3)cc(=O)[nH]c21 (stereo not shown) [Compound 20c, (2-oxo-4-phenyl-5,6,7,8-tetrahydroquinolin-8-yl) N-(4-fluorophenyl)carbamate] | > 50 |  | 18.4 ± 2.04 | 23.8 ± 4.02 | > 50 |  |  |  |  |  |
| COc1cc(-c2ccccc2)c2c(n1)C(=O)CCC2 [Compound 22, 2-methoxy-4-phenyl-6,7-dihydro-5H-quinolin-8-one] | > 50 | no cytotoxicity | > 50 | > 50 | > 50 | 127 to 129 |  |  |  |  |
| O=C(Nc1ccc(Cl)cc1)OC1CCCc2c(-c3ccccc3)cc(Cl)nc21 (stereo not shown) [Compound 18e, (2-chloro-4-phenyl-5,6,7,8-tetrahydroquinolin-8-yl) N-(4-chlorophenyl)carbamate] | > 50 |  | > 50 | 45.3 ± 4.2 | > 50 |  |  |  |  |  |
| O=C1CCCc2c(-c3ccccc3)cc(=O)[nH]c21 [Compound 23, 4-phenyl-1,5,6,7-tetrahydroquinoline-2,8-dione] | > 50 | no cytotoxicity | > 50 | > 50 | > 50 | 182 to 184 |  |  |  |  |
| COc1cc(-c2ccccc2)c2c(n1)C(OC(=O)Nc1ccccc1)CCC2 (stereo not shown) [Compound 19a, (2-methoxy-4-phenyl-5,6,7,8-tetrahydroquinolin-8-yl) N-phenylcarbamate] | > 50 |  | 26.2 ± 1.69 | > 50 | > 50 |  |  |  |  |  |
| O=c1cc(-c2ccccc2)c2c([nH]1)CCCC2 [Compound 9, 4-phenyl-5,6,7,8-tetrahydro-1H-quinolin-2-one] | > 50 | no cytotoxicity | > 50 | > 50 | > 50 |  |  |  |  |  |
| O=C(Nc1ccccc1)OC1CCCc2c(-c3ccccc3)cc(=O)[nH]c21 (stereo not shown) [Compound 20a, (2-oxo-4-phenyl-5,6,7,8-tetrahydroquinolin-8-yl) N-phenylcarbamate] | > 50 |  | ~13 | 21.8 ± 0.22 | > 50 | 144 to 146 | 13.1 ± 1.55 |  |  |  |

— PMC9200803, “Design, synthesis, and biological evaluation of tetrahydroquinolinones and tetrahydroquinolines with anticancer activity” (Scientific Reports, 2022)
